Data: ChEMBL document CHEMBL4411307, “N,N'-diaryl-bishydrazones in a biphenyl platform: Broad spectrum antifungal agents” (Eur J Med Chem, 2019)
Values after ≈ are worked out from the molar mass of the structure shown. Active and inactive are the calls of the source. The rule behind the calls is not given here.

How the values were obtained:
[1] = Selectivity index, ratio of CC50 for human A549 cells to MIC for fluconazole/ITC-resistant Candida albicans ATCC 64124; format: toxicity; details: read-out: Selectivity Index
Candida albicans [2] = test: Antifungal activity against fluconazole/ITC-resistant Candida albicans ATCC MYA-1003 measured after 48 hrs by CLSI M27-A3 protocol based method; format: functional; details: ATCC MYA-1003, 48 h
[3] = Selectivity index, ratio of compound concentration showing <20 to <25% hemolysis in mouse RBC to MIC for Aspergillus flavus ATCC MYA-3631; format: toxicity; details: red blood cells (erythrocytes), read-out: Selectivity Index
[4] = Hemolytic activity in mouse RBC at 31.3 ug/ml after 1 hr relative to control; format: ADME, cell-based, Erythrocyte; details: red blood cells (erythrocytes), read-out: Activity
[5] = Selectivity index, ratio of CC50 for human A549 cells to MIC for Candida krusei ATCC 6258; format: toxicity; details: read-out: Selectivity Index
[6] = Selectivity index, ratio of CC50 for human A549 cells to MIC for fluconazole/ITC-resistant Candida albicans ATCC MYA-1237; format: toxicity; details: read-out: Selectivity Index
Aspergillus terreus = test: Antifungal activity against Aspergillus terreus ATCC MYA-3633 measured after 48 hrs by CLSI M38-A2 protocol based method; format: functional; details: ATCC MYA-3633, 48 h
[7] = Selectivity index, ratio of compound concentration showing <20 to <25% hemolysis in mouse RBC to MIC for fluconazole/ITC-resistant Candida albicans ATCC MYA-1003; format: toxicity; details: red blood cells (erythrocytes), read-out: Selectivity Index
[8] = Selectivity index, ratio of CC50 for human A549 cells to MIC for Aspergillus nidulans ATCC 38163; format: toxicity; details: read-out: Selectivity Index
BEAS-2B = test: Cytotoxicity against human BEAS2B cells after 24 hrs by resazurin based assay; format: cell-based
[9] = Hemolytic activity in mouse RBC at 62.5 ug/ml after 1 hr relative to control; format: ADME, cell-based, Erythrocyte; details: red blood cells (erythrocytes), read-out: Activity
[10] = Selectivity index, ratio of compound concentration showing <20 to <25% hemolysis in mouse RBC to MIC for fluconazole/ITC-resistant Candida albicans ATCC MYA-1237; format: toxicity; details: red blood cells (erythrocytes), read-out: Selectivity Index
[11] = Selectivity index, ratio of compound concentration showing <20 to <25% hemolysis in mouse RBC to MIC for fluconazole/ITC-resistant Candida albicans ATCC 90819; format: toxicity; details: red blood cells (erythrocytes), read-out: Selectivity Index
[12] = Selectivity index, ratio of CC50 for human A549 cells to MIC for Aspergillus flavus ATCC MYA-3631; format: toxicity; details: read-out: Selectivity Index
[13] = Hemolytic activity in mouse RBC at […] after 1 hr relative to control; format: ADME, cell-based, Erythrocyte; details: red blood cells (erythrocytes), read-out: Activity; also: tested at 0.48 µg/mL
[14] = Selectivity index, ratio of compound concentration showing <20 to <25% hemolysis in mouse RBC to MIC for Aspergillus nidulans ATCC 38163; format: toxicity; details: red blood cells (erythrocytes), read-out: Selectivity Index
Aspergillus nidulans = test: Antifungal activity against Aspergillus nidulans ATCC 38163 measured after 48 hrs by CLSI M38-A2 protocol based method; format: functional; details: ATCC 38163, 48 h
[15] = Hemolytic activity in mouse RBC at 3.9 ug/ml after 1 hr relative to control; format: ADME, cell-based, Erythrocyte; details: red blood cells (erythrocytes), read-out: Activity
[16] = Hemolytic activity in mouse RBC at […] ug/ml after 1 hr relative to control; format: ADME, cell-based, Erythrocyte; details: red blood cells (erythrocytes), read-out: Activity; for hemolysis at 1 h, 15.6 ug/ml: at 15.6 µg/mL
[17] = Selectivity index, ratio of compound concentration showing <20 to <25% hemolysis in mouse RBC to MIC for Aspergillus terreus ATCC MYA-3633; format: toxicity; details: red blood cells (erythrocytes), read-out: Selectivity Index
[18] = Selectivity index, ratio of compound concentration showing <20 to <25% hemolysis in mouse RBC to MIC for fluconazole/ITC-susceptible Candida albicans ATCC MYA-2310; format: toxicity; details: red blood cells (erythrocytes), read-out: Selectivity Index
Candida albicans [19] = test: Antifungal activity against fluconazole/ITC-resistant Candida albicans ATCC 90819 measured after 48 hrs by CLSI M27-A3 protocol based method; format: functional; details: ATCC 90819, 48 h
[20] = Selectivity index, ratio of compound concentration showing <20 to <25% hemolysis in mouse RBC to MIC for fluconazole/ITC-resistant Candida albicans ATCC 10231; format: toxicity; details: red blood cells (erythrocytes), read-out: Selectivity Index
[21] = Selectivity index, ratio of CC50 for human A549 cells to MIC for fluconazole/ITC-resistant Candida albicans ATCC MYA-1003; format: toxicity; details: read-out: Selectivity Index
[22] = Selectivity index, ratio of compound concentration showing <20 to <25% hemolysis in mouse RBC to MIC for fluconazole/ITC-susceptible Candida albicans ATCC MYA-2876; format: toxicity; details: red blood cells (erythrocytes), read-out: Selectivity Index
[23] = Hemolytic activity in mouse RBC at 7.8 ug/ml after 1 hr relative to control; format: ADME, cell-based, Erythrocyte; details: red blood cells (erythrocytes), read-out: Activity
Nakaseomyces glabratus = test: Antifungal activity against Candida glabrata ATCC 2001 measured after 48 hrs by CLSI M27-A3 protocol based method; format: functional; details: CBS 138, 48 h
Candida albicans [24] = test: Antifungal activity against fluconazole/ITC-susceptible Candida albicans ATCC MYA-2310 measured after 48 hrs by CLSI M27-A3 protocol based method; format: functional; details: ATCC MYA-2310, 48 h
Pichia kudriavzevii = test: Antifungal activity against Candida krusei ATCC 6258 measured after 48 hrs by CLSI M27-A3 protocol based method; format: functional; details: ATCC 6258, 48 h
Staphylococcus aureus = test: Antibacterial activity against methicillin-resistant Staphylococcus aureus; format: functional, organism-based
Enterococcus = test: Antibacterial activity against vancomycin-resistant Enterococcus; format: functional, organism-based
Listeria monocytogenes = test: Antibacterial activity against Listeria monocytogenes; format: functional, organism-based
Candida albicans [25] = test: Antifungal activity against fluconazole/ITC-resistant Candida albicans ATCC MYA-1237 measured after 48 hrs by CLSI M27-A3 protocol based method; format: functional; details: ATCC MYA-1237, 48 h
Candida albicans [26] = test: Antifungal activity against fluconazole/ITC-resistant Candida albicans ATCC 10231 measured after 48 hrs by CLSI M27-A3 protocol based method; format: functional; details: ATCC 10231, 48 h
[27] = Selectivity index, ratio of CC50 for human A549 cells to MIC for Candida glabrata ATCC 2001; format: toxicity; details: read-out: Selectivity Index
[28] = Selectivity index, ratio of compound concentration showing <20 to <25% hemolysis in mouse RBC to MIC for Candida parapsilosis ATCC 22019; format: toxicity; details: red blood cells (erythrocytes), read-out: Selectivity Index
Candida parapsilosis = test: Antifungal activity against Candida parapsilosis ATCC 22019 measured after 48 hrs by CLSI M27-A3 protocol based method; format: functional; details: Lodderomyces parapsilosis, ATCC 22019, 48 h
[29] = Selectivity index, ratio of CC50 for human A549 cells to MIC for fluconazole/ITC-resistant Candida albicans ATCC 10231; format: toxicity; details: read-out: Selectivity Index
[30] = Selectivity index, ratio of CC50 for human A549 cells to MIC for fluconazole/ITC-resistant Candida albicans ATCC 90819; format: toxicity; details: read-out: Selectivity Index
Candida albicans [31] = test: Antifungal activity against fluconazole/ITC-resistant Candida albicans ATCC 64124 measured after 48 hrs by CLSI M27-A3 protocol based method; format: functional; details: ATCC 64124, 48 h
Candida albicans [32] = test: Antifungal activity against fluconazole/ITC-susceptible Candida albicans ATCC MYA-2876 measured after 48 hrs by CLSI M27-A3 protocol based method; format: functional; details: ATCC MYA-2876, 48 h
[33] = Selectivity index, ratio of CC50 for human A549 cells to MIC for Candida parapsilosis ATCC 22019; format: toxicity; details: read-out: Selectivity Index
[34] = Selectivity index, ratio of CC50 for human A549 cells to MIC for Aspergillus terreus ATCC MYA-3633; format: toxicity; details: read-out: Selectivity Index
[35] = Selectivity index, ratio of compound concentration showing <20 to <25% hemolysis in mouse RBC to MIC for Candida glabrata ATCC 2001; format: toxicity; details: red blood cells (erythrocytes), read-out: Selectivity Index
[36] = Selectivity index, ratio of CC50 for human A549 cells to MIC for fluconazole/ITC-susceptible Candida albicans ATCC MYA-2876; format: toxicity; details: read-out: Selectivity Index
[37] = Hemolytic activity in mouse RBC at 1.95 ug/ml after 1 hr relative to control; format: ADME, cell-based, Erythrocyte; details: red blood cells (erythrocytes), read-out: Activity
[38] = Selectivity index, ratio of CC50 for human A549 cells to MIC for fluconazole/ITC-susceptible Candida albicans ATCC MYA-2310; format: toxicity; details: read-out: Selectivity Index
A549 = test: Cytotoxicity against human A549 cells after 24 hrs by resazurin based assay; format: cell-based; details: a549, 24 h
Aspergillus flavus = test: Antifungal activity against Aspergillus flavus ATCC MYA-3631 measured after 48 hrs by CLSI M38-A2 protocol based method; format: functional; details: ATCC MYA-3631, 48 h
[39] = Selectivity index, ratio of compound concentration showing <20 to <25% hemolysis in mouse RBC to MIC for fluconazole/ITC-resistant Candida albicans ATCC 64124; format: toxicity; details: red blood cells (erythrocytes), read-out: Selectivity Index
[40] = Selectivity index, ratio of compound concentration showing <20 to <25% hemolysis in mouse RBC to MIC for Candida krusei ATCC 6258; format: toxicity; details: red blood cells (erythrocytes), read-out: Selectivity Index
Candida albicans [41] = test: Antibiofilm activity against fluconazole/ITC-resistant Candida albicans ATCC 10231 assessed as reduction in sessile growth after 24 hrs by XTT assay; format: functional; details: ATCC 10231, 24 h
Candida albicans [42] = test: Antibiofilm activity against fluconazole/ITC-resistant Candida albicans ATCC 64124 assessed as reduction in sessile growth after 24 hrs by XTT assay; format: functional; details: ATCC 64124, 24 h
Candida albicans [43] = test: Fungicidal activity against fluconazole/ITC-resistant Candida albicans ATCC 10231 assessed as reduction in fungal growth at 0.5 to 2 times MIC incubated for 24 hrs followed by replating on PDA plates measured after 48 hrs Time-Kill assay; format: functional, organism-based

C(=N\Nc1ccccc1)/c1ccc(-c2cccc(/C=N/Nc3ccccc3)c2)cc1
selectivity ratio [1]: 1
MIC (Candida albicans [2]): 3.9 µg/mL (≈ 9.99 µM)
selectivity ratio [3]: 1 to 32
hemolysis at 1 h, 31.3 ug/ml [4]: 16.7%
selectivity ratio [5]: 4
selectivity ratio [6]: 1
MIC (Aspergillus terreus): 15.6 µg/mL (≈ 39.9 µM)
selectivity ratio [7]: 1 to 32
selectivity ratio [8]: 16
CC50 (BEAS-2B): > 31 µg/mL
hemolysis at 1 h, 62.5 ug/ml [9]: 23.6%
selectivity ratio [10]: 1 to 32
selectivity ratio [11]: 1 to 32
selectivity ratio [12]: 8
hemolysis at 1 h, […] [13]: 0%
selectivity ratio [14]: 1 to 32
MIC (Aspergillus nidulans): 1.95 µg/mL (≈ 4.99 µM)
hemolysis at 1 h, 3.9 ug/ml [15]: 1.5%
hemolysis at 1 h, 15.6 ug/ml [16]: 14.1%
hemolysis at 1 h, 0.975 ug/ml [16]: 0%
selectivity ratio [17]: 1 to 32
selectivity ratio [18]: 1 to 32
MIC (Candida albicans [19]): 31.3 µg/mL (≈ 80.2 µM)
selectivity ratio [20]: 1 to 32
selectivity ratio [21]: 4
selectivity ratio [22]: 1 to 32
hemolysis at 1 h, 7.8 ug/ml [23]: 8.5%
MIC (Nakaseomyces glabratus): > 31.3 µg/mL
MIC (Candida albicans [24]): 31.3 µg/mL (≈ 80.2 µM)
MIC (Pichia kudriavzevii): 7.8 µg/mL (≈ 20 µM)
Activity (Staphylococcus aureus): inactive
Activity (Enterococcus): inactive
Activity (Listeria monocytogenes): inactive
MIC (Candida albicans [25]): 31.3 µg/mL (≈ 80.2 µM)
MIC (Candida albicans [26]): 1.95 µg/mL (≈ 4.99 µM)
selectivity ratio [27]: 1
selectivity ratio [28]: 1 to 32
MIC (Candida parapsilosis): > 31.3 µg/mL
selectivity ratio [29]: 16
selectivity ratio [30]: 1
MIC (Candida albicans [31]): 31.3 µg/mL (≈ 80.2 µM)
MIC (Candida albicans [32]): 31.3 µg/mL (≈ 80.2 µM)
selectivity ratio [33]: 1
selectivity ratio [34]: 2
selectivity ratio [35]: 1 to 32
selectivity ratio [36]: 1
hemolysis at 1 h, 1.95 ug/ml [37]: 3.5%
selectivity ratio [38]: 1
CC50 (A549): > 31 µg/mL
MIC (Aspergillus flavus): 3.9 µg/mL (≈ 9.99 µM)
selectivity ratio [39]: 1 to 32
selectivity ratio [40]: 1 to 32

C[C@@H](c1ncncc1F)[C@](O)(Cn1cncn1)c1ccc(F)cc1F [VORICONAZOLE]
hemolysis at 1 h, 31.3 ug/ml [4]: 83%
MIC (Aspergillus terreus): > 31.3 µg/mL
hemolysis at 1 h, […] [13]: 8.7%
MIC (Aspergillus nidulans): > 31.3 µg/mL
hemolysis at 1 h, 3.9 ug/ml [15]: 7.5%
hemolysis at 1 h, 15.6 ug/ml [16]: 2.8%
hemolysis at 1 h, 0.975 ug/ml [16]: 10.3%
MIC (Candida albicans [19]): 0.12 µg/mL (≈ 0.344 µM)
hemolysis at 1 h, 7.8 ug/ml [23]: 11.4%
MIC (Candida albicans [24]): 0.12 µg/mL (≈ 0.344 µM)
MIC50 (Candida albicans [41]): 16 µg/mL (≈ 45.8 µM)
MIC90 (Candida albicans [41]): > 32 µg/mL
MIC (Candida albicans [25]): 0.24 µg/mL (≈ 0.687 µM)
MIC (Candida albicans [26]): 0.975 µg/mL (≈ 2.79 µM)
MIC50 (Candida albicans [42]): 16 µg/mL (≈ 45.8 µM)
MIC90 (Candida albicans [42]): > 32 µg/mL
MIC (Candida parapsilosis): 1.95 µg/mL (≈ 5.58 µM)
MIC (Candida albicans [31]): 0.24 µg/mL (≈ 0.687 µM)
Activity (Candida albicans [43]): Active
hemolysis at 1 h, 1.95 ug/ml [37]: 6.3%
MIC (Aspergillus flavus): > 31.3 µg/mL
